From patent publication US10039753B2, “Imidazo[4,5-c]quinoline and imidazo[4,5-c][1,5]naphthyridine derivatives as LRRK2 inhibitors” (Pfizer Inc., priority 2015, dated 2018)
Where a name gives a salt, the structure may show the parent alone.

What was measured:
[1] = biological target: mutant G2019S LRRK2 (Homo sapiens, UniProt Q5S007, G2019S); test: LRRK2 Assay, Format 2 (Lantha Screen), G2019S mutant; format: biochemical; design: purchased Invitrogen PV4881; details: geometric mean of 2-4 determinations unless otherwise indicated (a: >=5; b: single determination); read-out: LRRK2, Format 2 G2019S IC50
Sequence of mutant G2019S LRRK2 (Q5S007 970-2527 G2019S limits assumed): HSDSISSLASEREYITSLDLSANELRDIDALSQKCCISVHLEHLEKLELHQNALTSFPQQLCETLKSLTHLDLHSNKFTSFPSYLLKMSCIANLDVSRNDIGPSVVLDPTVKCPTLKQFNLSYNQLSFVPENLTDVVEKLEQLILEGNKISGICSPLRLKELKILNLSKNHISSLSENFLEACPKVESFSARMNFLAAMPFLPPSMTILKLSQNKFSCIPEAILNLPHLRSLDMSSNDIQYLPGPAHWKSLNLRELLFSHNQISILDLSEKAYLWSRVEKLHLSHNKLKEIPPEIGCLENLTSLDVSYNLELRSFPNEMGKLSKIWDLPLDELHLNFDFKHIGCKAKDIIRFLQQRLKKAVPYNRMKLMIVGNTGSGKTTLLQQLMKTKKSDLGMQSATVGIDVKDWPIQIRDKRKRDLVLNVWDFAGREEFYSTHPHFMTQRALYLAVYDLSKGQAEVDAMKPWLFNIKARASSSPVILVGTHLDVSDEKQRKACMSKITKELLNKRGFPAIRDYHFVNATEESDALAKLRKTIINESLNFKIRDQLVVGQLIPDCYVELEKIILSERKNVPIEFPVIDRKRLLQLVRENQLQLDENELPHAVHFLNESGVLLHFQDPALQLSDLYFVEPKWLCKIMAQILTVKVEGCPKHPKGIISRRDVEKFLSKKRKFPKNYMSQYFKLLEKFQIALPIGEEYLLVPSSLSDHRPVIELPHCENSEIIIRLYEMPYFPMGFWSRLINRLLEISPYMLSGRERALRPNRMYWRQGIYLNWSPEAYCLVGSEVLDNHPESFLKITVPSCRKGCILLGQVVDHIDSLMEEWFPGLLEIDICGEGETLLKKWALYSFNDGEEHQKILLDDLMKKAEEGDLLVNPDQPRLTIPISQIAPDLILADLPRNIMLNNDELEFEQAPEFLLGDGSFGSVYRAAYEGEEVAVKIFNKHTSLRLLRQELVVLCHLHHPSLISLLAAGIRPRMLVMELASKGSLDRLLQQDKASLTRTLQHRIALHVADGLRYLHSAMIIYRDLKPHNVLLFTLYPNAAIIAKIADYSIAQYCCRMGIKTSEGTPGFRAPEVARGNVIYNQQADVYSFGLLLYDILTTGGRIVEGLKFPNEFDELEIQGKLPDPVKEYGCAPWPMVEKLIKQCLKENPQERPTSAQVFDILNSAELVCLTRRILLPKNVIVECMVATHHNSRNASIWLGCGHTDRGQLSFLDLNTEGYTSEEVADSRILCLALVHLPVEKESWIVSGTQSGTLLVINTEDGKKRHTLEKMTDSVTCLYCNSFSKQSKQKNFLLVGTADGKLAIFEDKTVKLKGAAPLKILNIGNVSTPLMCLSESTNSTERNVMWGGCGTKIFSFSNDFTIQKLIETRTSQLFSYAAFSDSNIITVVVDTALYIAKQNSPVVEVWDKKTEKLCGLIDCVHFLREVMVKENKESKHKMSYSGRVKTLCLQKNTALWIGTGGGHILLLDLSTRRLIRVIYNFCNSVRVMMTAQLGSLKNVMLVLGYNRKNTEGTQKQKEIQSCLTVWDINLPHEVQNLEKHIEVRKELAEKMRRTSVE

[2] = biological target: T1, GST-tagged truncated LRRK2 (Homo sapiens, UniProt Q5S007); test: LRRK2 Assay, Format 2 (Lantha Screen), WT; format: biochemical; details: geometric mean of 2-4 determinations unless otherwise indicated (a: >=5; b: single determination)
T1 construct: GST-tagged truncated LRRK2 from Invitrogen (Cat # PV4874); GST; purchased Invitrogen PV4874
T1 sequence (Q5S007 970-2527 limits assumed): as the sequence (Q5S007 970-2527 G2019S limits assumed) above, with S1050G counted along it

| Structure (SMILES) | IC50 [1] | IC50 [2] |
| --- | --- | --- |
| Cc1cc(Cc2nc3cnc4ccc(C#N)cc4c3n2C2CCN(C)C2)no1 (centres unmarked) [Example 217, 2-[(5-methyl-1,2-oxazol-3-yl)methyl]-1-(1-methylpyrrolidin-3-yl)-1H-imidazo[4,5-c]quinoline-8-carbonitrile, formate salt] | 11.1 nM | 5.43 nM |
| C[C@@H]1C[C@H](n2c(Cc3ccc(C(F)(F)F)cn3)nc3cnc4ccc(C#N)cc4c32)CCO1 [Example 208, 1-[(2R,4R)-2-methyltetrahydro-2H-pyran-4-yl]-2-{[5-(trifluoromethyl)pyridin-2-yl]methyl}-1H-imidazo[4,5-c]quinoline-8-carbonitrile] | 14.3 nM | 15 nM |
| Cc1cc(Cc2nc3cnc4ccc(C#N)cc4c3n2C2CCCC(F)(F)C2)no1 (centres unmarked) [Example 244, 1-(3,3-difluorocyclohexyl)-2-[(5-methyl-1,2-oxazol-3-yl)methyl]-1H-imidazo[4,5-c]quinoline-8-carbonitrile, formate salt] | 89.7 nM | 79.4 nM |
| Cc1cc(Cc2nc3cnc4ccc(C#N)cc4c3n2C2CCCCC2(F)F)no1 (centres unmarked) [Example 151, 1-(2,2-difluorocyclohexyl)-2-[(5-methyl-1,2-oxazol-3-yl)methyl]-1H-imidazo[4,5-c]quinoline-8-carbonitrile, formate salt] | 25.5 nM | 16.7 nM |
| C[C@@H]1C[C@H](n2c(Cn3cc(C(F)(F)F)nn3)nc3cnc4ccc(Cl)cc4c32)CCO1 [Example 99, 8-Chloro-1-[(2R,4R)-2-methyltetrahydro-2H-pyran-4-yl]-2-{[4-(trifluoromethyl)-1H-1,2,3-triazol-1-yl]methyl}-1H-imidazo[4,5-c]quinoline, formate salt] | 5.42 nM | 5.84 nM |
| Cc1cn(Cc2nc3cnc4ccc(C#N)cc4c3n2C2CCCC2(F)F)nn1 (single isomer, unassigned; ent-1) [Example 196, 1-(2,2-difluorocyclopentyl)-2-[(4-methyl-1H-1,2,3-triazol-1-yl)methyl]-1H-imidazo[4,5-c]quinoline-8-carbonitrile, ENT-1] | 15.8 nM | 18.8 nM |
| C[C@@H]1C[C@H](n2c(C(=O)c3ccon3)nc3cnc4ccc(Cl)cc4c32)CCO1 [Example 174, {8-chloro-1-[(2R,4R)-2-methyltetrahydro-2H-pyran-4-yl]-1H-imidazo[4,5-c]quinolin-2-yl}(1,2-oxazol-3-yl)methanone] | 19.6 nM | 16.8 nM |
| Cc1cn(Cc2nc3cnc4ccc(F)cc4c3n2[C@@H]2CCO[C@H](C)C2)nn1 [Example 199, 8-fluoro-1-[(2R,4R)-2-methyltetrahydro-2H-pyran-4-yl]-2-[(4-methyl-1H-1,2,3-triazol-1-yl)methyl]-1H-imidazo[4,5-c]quinoline] | 11.8 nM | 10.3 nM |
| CC1(C)CC(n2c(Cc3cc(C(F)(F)F)on3)nc3cnc4ccc(C#N)cc4c32)CCO1 (single isomer, unassigned; ent-2) [Example 177, 1-(2,2-dimethyltetrahydro-2H-pyran-4-yl)-2-{[5-(trifluoromethyl)-1,2-oxazol-3-yl]methyl}-1H-imidazo[4,5-c]quinoline-8-carbonitrile, ENT-2] | 914 nM | 1220 nM |
| Cc1cn(Cc2nc3cnc4ccc(Cl)cc4c3n2C2CCC2(F)F)nn1 (centres unmarked) [Example 187, 8-chloro-1-(2,2-difluorocyclobutyl)-2-[(4-methyl-1H-1,2,3-triazol-1-yl)methyl]-1H-imidazo[4,5-c]quinoline] | 33.3 nM | 28.1 nM |
| Cc1cc(Cc2nc3cnc4ccc(C#N)cc4c3n2[C@@H]2CCC[C@@H]2F)no1 (single isomer, unassigned; ent-2) [Example 147, 1-(cis-2-fluorocyclopentyl)-2-[(5-methyl-1,2-oxazol-3-yl)methyl]-1H-imidazo[4,5-c]quinoline-8-carbonitrile, ENT-2] | 22.6 nM | 14.5 nM |
| Cc1cc(Cc2nc3cnc4ccc(C#N)cc4c3n2[C@@H]2CCC[C@@H]2F)no1 (single isomer, unassigned; ent-1) [Example 146, 1-(cis-2-fluorocyclopentyl)-2-[(5-methyl-1,2-oxazol-3-yl)methyl]-1H-imidazo[4,5-c]quinoline-8-carbonitrile, ENT-1] | 29.9 nM | 17.8 nM |
| C[C@@H]1C[C@H](n2c(C(F)c3ccon3)nc3cnc4ccc(Cl)cc4c32)CCO1 (single isomer, unassigned) [Example 238] | 3.82 nM | 3.88 nM |
| CO[C@H]1CC[C@H](n2c(Cc3cc(C)on3)nc3cnc4ccc(C#N)cc4c32)CC1 [Example 219, 1-(trans-4-methoxycyclohexyl)-2-[(5-methyl-1,2-oxazol-3-yl)methyl]-1H-imidazo[4,5-c]quinoline-8-carbonitrile, formate salt] | 126 nM | 246 nM |

More lines, in order of falling IC50 [1], values ahead:

| IC50 [1] | IC50 [2] | Structure (SMILES) |
| --- | --- | --- |
| 10.8 nM | 9.06 nM | CC(F)(F)Cn1c(Cn2cc(C(F)(F)F)cn2)nc2cnc3ccc(C#N)cc3c21 [Example 227, 1-(2,2-difluoropropyl)-2-{[4-(trifluoromethyl)-1H-pyrazol-1-yl]methyl}-1H-imidazo[4,5-c]quinoline-8-carbonitrile] |
| 8.59 nM | 9.08 nM | C[C@@H]1C[C@H](n2c(Cc3ccncn3)nc3cnc4ccc(C#N)cc4c32)CCO1 [Example 222, 1-[(2R,4R)-2-methyltetrahydro-2H-pyran-4-yl]-2-(pyrimidin-4-ylmethyl)-1H-imidazo[4,5-c]quinoline-8-carbonitrile] |
| 8.43 nM | 8.26 nM | C[C@@H]1C[C@H](n2c(Cc3cn4ccccc4n3)nc3cnc4ccc(Cl)cc4c32)CCO1 [Example 167, 8-chloro-2-(imidazo[1,2-a]pyridin-2-ylmethyl)-1-[(2R,4R)-2-methyltetrahydro-2H-pyran-4-yl]-1H-imidazo[4,5-c]quinoline, trifluoroacetate salt] |
| 8.15 nM | 8.47 nM | Cc1cnn(Cc2nc3cnc4ccc(Cl)cc4c3n2[C@@H]2CCO[C@H](C)C2)c1 [Example 212, 8-chloro-2-[(4-methyl-1H-pyrazol-1-yl)methyl]-1-[(2R,4R)-2-methyltetrahydro-2H-pyran-4-yl]-1H-imidazo[4,5-c]quinoline] |
| 8.04 nM | 8.39 nM | CC(C)c1cn(Cc2nc3cnc4ccc(C#N)cc4c3n2[C@@H]2CCO[C@H](C)C2)nn1 [Example 126, 1-[(2R,4R)-2-methyltetrahydro-2H-pyran-4-yl]-2-{[4-(propan-2-yl)-1H-1,2,3-triazol-1-yl]methyl}-1H-imidazo[4,5-c]quinoline-8-carbonitrile, formate salt] |
| 7.44 nM | 6.75 nM | C[C@@H]1C[C@H](n2c(Cc3ccc4nnnn4n3)nc3cnc4ccc(Cl)cc4c32)CCO1 [Example 165, 8-chloro-1-[(2R,4R)-2-methyltetrahydro-2H-pyran-4-yl]-2-(tetrazolo[1,5-b]pyridazin-6-ylmethyl)-1H-imidazo[4,5-c]quinoline] |
| 7.25 nM | 7.01 nM | C[C@@H]1C[C@H](n2c(Cc3ccn(C)n3)nc3cnc4ccc(Cl)cc4c32)CCO1 [Example 163, 8-chloro-2-[(1-methyl-1H-pyrazol-3-yl)methyl]-1-[(2R,4R)-2-methyltetrahydro-2H-pyran-4-yl]-1H-imidazo[4,5-c]quinoline] |
| 7.16 nM | 7.68 nM | Cc1cnn(Cc2nc3cnc4ccc(C#N)cc4c3n2[C@@H]2CCO[C@H](C)C2)c1 [Example 133, 2-[(4-methyl-1H-pyrazol-1-yl)methyl]-1-[(2R,4R)-2-methyltetrahydro-2H-pyran-4-yl]-1H-imidazo[4,5-c]quinoline-8-carbonitrile] |
| 6.15 nM | 6.06 nM | Cc1ccn2cc(Cc3nc4cnc5ccc(Cl)cc5c4n3[C@@H]3CCO[C@H](C)C3)nc2n1 [Example 159, 8-chloro-2-[(7-methylimidazo[1,2-a]pyrimidin-2-yl)methyl]-1-[(2R,4R)-2-methyltetrahydro-2H-pyran-4-yl]-1H-imidazo[4,5-c]quinoline] |
| 5.61 nM | 6.19 nM | C[C@@H]1C[C@H](n2c(Cn3cccn3)nc3cnc4ccc(C#N)cc4c32)CCO1 [Example 121, 1-[(2R,4R)-2-methyltetrahydro-2H-pyran-4-yl]-2-(1H-pyrazol-1-ylmethyl)-1H-imidazo[4,5-c]quinoline-8-carbonitrile, formate salt] |
| 5.01 nM | 4.74 nM | Cc1ccc(Cc2nc3cnc4ccc(Cl)cc4c3n2[C@@H]2CCO[C@H](C)C2)nc1 [Example 100, 8-Chloro-2-[(5-methylpyridin-2-yl)methyl]-1-[(2R,4R)-2-methyltetrahydro-2H-pyran-4-yl]-1H-imidazo[4,5-c]quinoline] |
| 4.31 nM | 4.78 nM | CCc1nn2cc(Cc3nc4cnc5ccc(C#N)cc5c4n3[C@@H]3CCO[C@H](C)C3)nc2s1 [Example 156, 2-[(2-ethylimidazo[2,1-b][1,3,4]thiadiazol-6-yl)methyl]-1-[(2R,4R)-2-methyltetrahydro-2H-pyran-4-yl]-1H-imidazo[4,5-c]quinoline-8-carbonitrile, formate salt] |
| 2.79 nM | 2.76 nM | C[C@@H]1C[C@H](n2c(Cc3cc(CF)on3)nc3cnc4ccc(Cl)cc4c32)CCO1 [Example 139, 8-chloro-2-{[5-(fluoromethyl)-1,2-oxazol-3-yl]methyl}-1-[(2R,4R)-2-methyltetrahydro-2H-pyran-4-yl]-1H-imidazo[4,5-c]quinoline] |
| 2.12 nM | 2.04 nM | C[C@@H]1C[C@H](n2c(Cc3cn4ncsc4n3)nc3cnc4ccc(C#N)cc4c32)CCO1 [Example 149, 2-(imidazo[2,1-b][1,3,4]thiadiazol-6-ylmethyl)-1-[(2R,4R)-2-methyltetrahydro-2H-pyran-4-yl]-1H-imidazo[4,5-c]quinoline-8-carbonitrile] |
